These results are taken from ChEMBL document CHEMBL1132498, “Increased antiviral activity of cyclic urea HIV protease inhibitors by modifying the P1/P1' substituents” (Bioorg Med Chem Lett, 1999).

Test [1] relates to Human immunodeficiency virus 1. Kind of test: Inhibitory activity was determined by measuring accumulation of viral RNA transcript after infection of cells with HIV-1. The format is functional.
The nature of test [2]: Translatory activity was evaluated as ratio of Ki and IC90 *10e-5. The format is functional.
Test [3] deals with Human immunodeficiency virus type 1 protease (Human immunodeficiency virus 1, UniProt Q72874). In words: Binding affinity for HIV protease.

By IC90 is commonly meant the point of the concentration-response curve where the effect stands at 90%. A word on the Ki: it is a measure of affinity in units of concentration, obtained from inhibition or displacement. High values mean weaker binding, low ones tighter binding. In test [1], `CCc1ccc(C[C@@H]2[C@H](O)[C@@H](O)[C@@H](Cc3ccc(CC)cc3)N(Cc3ccc4[nH]nc(N)c4c3)C(=O)N2Cc2ccc3[nH]nc(N)c3c2)cc1` showed an IC90 of 300 nM. Further, the Translation in test [2] was determined as 23. Also, the inhibitory constant (Ki) in test [3] was determined as 0.068 nM.
The like results for `CC(C)(C)c1cccc(C[C@@H]2[C@H](O)[C@@H](O)[C@@H](Cc3cccc(C(C)(C)C)c3)N(Cc3ccc4[nH]nc(N)c4c3)C(=O)N2Cc2ccc3[nH]nc(N)c3c2)c1` were, in that order, 390 nM, 54 and 0.21 nM.
In turn, `CCCc1ccc(C[C@@H]2[C@H](O)[C@@H](O)[C@@H](Cc3ccc(CCC)cc3)N(Cc3ccc4[nH]nc(N)c4c3)C(=O)N2Cc2ccc3[nH]nc(N)c3c2)cc1` registered a concentration for an effect of 90% (IC90) in test [1] of 290 nM. The Translation in test [2] amounted to 23. The Ki in test [3] came to 0.068 nM.
The like results for `CCCCc1ccc(C[C@@H]2[C@H](O)[C@@H](O)[C@@H](Cc3ccc(CCCC)cc3)N(Cc3ccc4[nH]nc(N)c4c3)C(=O)N2Cc2ccc3[nH]nc(N)c3c2)cc1` were, in that order, 180 nM, 94 and 0.17 nM.
`Cc1cc(C)cc(C[C@@H]2[C@H](O)[C@@H](O)[C@@H](Cc3cc(C)cc(C)c3)N(Cc3ccc4[nH]nc(N)c4c3)C(=O)N2Cc2ccc3[nH]nc(N)c3c2)c1` displayed a concentration for an effect of 90% (IC90) in test [1] of 540 nM. For the same compound, the Translation in test [2] turned out to be 12. Also, the Ki in test [3] worked out at 0.067 nM.
In test [1], `CC(C)(C)c1ccc(C[C@@H]2[C@H](O)[C@@H](O)[C@@H](Cc3ccc(C(C)(C)C)cc3)N(Cc3ccc4[nH]nc(N)c4c3)C(=O)N2Cc2ccc3[nH]nc(N)c3c2)cc1` displayed an IC90 of 100 nM. Further, in test [2], the Translation is 190. In test [3], this compound returned an inhibition constant Ki of 0.19 nM.
On to `Nc1[nH]nc2ccc(CN3C(=O)N(Cc4ccc5n[nH]c(N)c5c4)[C@H](Cc4ccccc4)[C@H](O)[C@@H](O)[C@H]3Cc3ccccc3)cc12`, for which it took 2760 nM to reach the 90% level in test [1] (IC90). The Translation in test [2] is less than 0.36.
In the case of `CC(C)c1ccc(C[C@@H]2[C@H](O)[C@@H](O)[C@@H](Cc3ccc(C(C)C)cc3)N(Cc3ccc4[nH]nc(N)c4c3)C(=O)N2Cc2ccc3[nH]nc(N)c3c2)cc1`, the 90% effect level in test [1] (IC90) was put at 410 nM. The Translation in test [2] is 46. Besides, affinity in test [3] was put at a Ki of 0.19 nM.
`Nc1n[nH]c2ccc(CN3C(=O)N(Cc4ccc5[nH]nc(N)c5c4)[C@H](Cc4ccccc4)[C@H](O)[C@@H](O)[C@H]3Cc3ccccc3)cc12`: the inhibition constant (Ki) in test [3] was less than 0.01 nM.
Take `Cc1ccc(C)c(C[C@@H]2[C@H](O)[C@@H](O)[C@@H](Cc3cc(C)ccc3C)N(Cc3ccc4[nH]nc(N)c4c3)C(=O)N2Cc2ccc3[nH]nc(N)c3c2)c1`: the 90% effect concentration (IC90) in test [1] was found to be 300 nM. Besides, in test [2], the Translation stood at 11. This compound showed a Ki in test [3] of 0.034 nM.
On to `Cc1cccc(C[C@@H]2[C@H](O)[C@@H](O)[C@@H](Cc3cccc(C)c3)N(Cc3ccc4[nH]nc(N)c4c3)C(=O)N2Cc2ccc3[nH]nc(N)c3c2)c1`, for which the IC90 in test [1] stood at 740 nM. Moreover, in test [2], the Translation came to 1.5. Besides, in test [3], the affinity corresponds to a Ki of 0.011 nM.
For `Cc1ccc(C[C@@H]2[C@H](O)[C@@H](O)[C@@H](Cc3ccc(C)cc3)N(Cc3ccc4[nH]nc(N)c4c3)C(=O)N2Cc2ccc3[nH]nc(N)c3c2)cc1` the same measures were 780 nM, 8 and 0.061 nM.
